# Assay results as given in PMC9501633, “Synthesis, Characterisation and Mechanism of Action of Anticancer 3-Fluoroazetidin-2-ones” (Pharmaceuticals, 2022).
# Key:
# [1] = AlamarBlue cell viability assay, non-tumourigenic cells; type: cell-based, human; conditions: human, HEK-293T cells (non-tumourigenic), 1 μM
# Protocol: (§1) The cytotoxicity of the potent β-lactam 33 was investigated in the non-tumourigenic HEK-293T cell line (normal human embryonic kidney) at 72 h. […] For example, the cell viability of HEK cells at 1 μM was 88% in contrast to the cell viability of 36% for MCF-7 cells at 1 μM.
# (§2) Cells were seeded at a density of 5 × 10^3 cells/well (MCF-7 and MDA-MB-231) and 1 × 10^4 cells/well (HEK-293T) in 96-well plates (200 μL per well). After 24 h, cells were then treated with medium alone, with vehicle (1% ethanol (v/v)) or with CA-4 or β-lactam compounds at 1 μM and 10 μM concentrations. […] Cell proliferation for MCF-7 cells was analysed with the AlamarBlue assay (Invitrogen Corp.) as previously described by us. […] Fluorescence results were obtained with a 96-well fluorimeter with excitation at 530 nm and emission at 590 nm with results recorded as percentage viability relative to vehicle control (100%). […]
# (§3) Figure 4 Antiproliferative activity of 3-fluoro β-lactams on MCF-7, MDA-MB-231, Hs578T and Hs578T isogenic subclone Hs578T(i)8 breast cancer cells and non-tumourigenic HEK-293T cells. […] Cell viability was expressed as a percentage of vehicle control (ethanol 1% (v/v))-treated cells. […] Cell viability was expressed as a percentage of vehicle control (ethanol 1% (v/v))-treated cells and was measured by AlamarBlue assay (average of three independent experiments). […]
# HEK-293T cells = experiment: as above; type: cell-based, human; conditions: Homo sapiens, 72 h
# Protocol: as §1, §2, §3
# [2] = Stability in phosphate buffers (HPLC); type: physicochemical
# Protocol: The β-lactam ring is known to undergo hydrolysis/degradation depending on the substituent type on the ring. For example, degradation of monocyclic β-lactam antibiotic aztreonam increased with elevated humidity, temperature and acidic pH buffer. Ezetimibe, a monocyclic β-lactam drug used to reduce blood cholesterol, undergoes degradation and hydrolysis more rapidly in neutral and basic pH conditions than in acidic pH [71]. The stability of representative compounds 33 and 39 was also determined at pH 4, pH 7.4 (plasma) and pH 9 (intestine) by HPLC. […] The electron-withdrawing effect of the 3-fluoro substituent may result in decreasing stability of the β-lactam ring in response to acid hydrolysis.
# The stability study for compounds 33 and 39 was performed using analytical HPLC (Symmetry column (C18, […], 4.6 × 150 mm), dual wavelength absorbance detector (Waters 2487), binary HPLC pump (Waters 1525) and autosampler (Waters 717 plus)) with mobile phase acetonitrile (70%)/water (30%), flow rate 1 mL/min over 15 min and detection at λ 254 nm. Stock solutions of compounds 33 and 39 (1 mg/mL in mobile phase) were used. Dilutions of 0.5 mg/mL, 0.25 mg/mL, 0.125 mg/mL, 0.0625 mg/mL, 0.03125 mg/mL, 0.015625 mg/mL and 0.0078 mg/mL were prepared for the calibration curve. (i) Stability of 33 and 39 in phosphate buffers: The phosphate buffers were prepared in accordance with the British Pharmacopoeia 2020 at pH values 4, 7.4 and 9. Stock solution, 300 µL (1 mg/mL ACN), was added to a vial containing buffer (9.7 mL), mixed and pre-heated to 37 °C. 1 mL of the solution was introduced into an HPLC vial. Samples (10 µL) were injected and analysed at time intervals of t = 0 min, 5 min, 30 min, 60 min and hourly for 24 h. The analysis was performed in triplicate. (ii) Thermal stability: Compounds 33 and 39 (1 mL stock solution) were each placed in a vial for 4 h at 60 °C on a heating block. The sample was then cooled, diluted with acetonitrile and analysed by HPLC. (iii) Photostability study: Compounds 33 and 39 (stock solution, 1 mL) were placed in a vial, exposed to UV light for 4 h and then analysed by HPLC. (iv) Stability in acidic conditions: HCl (0.1 M, 0.2 mL) was added to stock solutions (0.8 mL) of 33 and 39 in a vial. The vial was vortexed and retained at room temperature. A sample was neutralised with NaOH (0.1 M, 0.2 mL) each hour for 4 h and then analysed by HPLC. (v) Stability of 33 and 39 in basic (alkaline) conditions: NaOH (0.1 M, 0.2 mL) was added to stock solution (0.8 mL) in a vial. The vial was vortexed and retained at room temperature. A sample was neutralised with HCl (0.1 M, 0.2 mL) every hour for 4 h then analysed by HPLC. (vi) Stability of 33 and 39 in oxidising conditions: H2O2 (3%, 0.2 mL) was added to the stock solution (0.8 mL). The vial was vortexed to obtain a homogeneous mixture and retained at room temperature, and a sample was analysed by HPLC every hour for 4 h.
structure (smiles),measurement,setting,value
"COc1ccc(C2C(F)C(=O)N2c2cc(OC)c(OC)c(OC)c2)cc1F (stereo not drawn) [Compound 33, 3-Fluoro-4-(3-fluoro-4-methoxyphenyl)-1-(3,4,5-trimethoxyphenyl)azetidin-2-one]","viability at 72 h, 1 µM",[1],88%
same,IC50,HEK-293T cells,> 50 µM
same,"remaining at 24 h, 0.03 mg/mL","[2]; phosphate buffer pH 4, 37 °C",76%
same,"remaining at 24 h, 0.03 mg/mL","[2]; phosphate buffer pH 7.4, 37 °C",87%
same,"remaining at 24 h, 0.03 mg/mL","[2]; phosphate buffer pH 9, 37 °C",26%
same,remaining at 0.03 mg/mL,"[2]; phosphate buffer, pH 11 (as printed in Table S7)",26%
